Where only a bound is given, the exact number is not on record here.

Usually IC50 stands for the point on the concentration scale where inhibition reaches its midpoint. A high value points to lower potency.

This assay concerns IFN-a/Jak1 Tyk2. Briefly: Co-stimulation assay in lysed whole blood: IFNa (JAK1/TYK2) stimulated STAT1 phosphorylation. Format: cell-based. The following applies: Homo sapiens, 20 min, 100 ng/mL IFNa (with 10 ng/mL GM-CSF), pSTAT by flow cytometry. Here is the method: Example 12: Co-Stimulation Assay in Lysed Whole Blood; JAK2: GM-CSF Stimulated STAT5 Phosphorylation and JAK1/TYK2 Stimulated STAT1 Phosphorylation Assay
Human Blood Lysis Using Abcam's RBC Lysis Buffer
Dilute RBC lysis buffer to 1× in distilled water. Add 2 mL blood to 38 mL of 1×RBC-lysis buffer. Incubate for 15 mins at RT, in dark. Spin at 300 g, 5 mins, to collect the pellet. Re-lyse if necessary. Re-suspend pellet in 5 mL of cRPMI.
Compound and Cytokine Treatment
Aliquot 80 μL of lysed human blood in to wells of 96 deep-well plate. Add 10 μl of (10× conc.) of different concentrations of compounds to all wells except controls (unstained and unstimulated) and mix it with the help of 100 uL multichannel. Add 10 uL of RPMI media in controls. For dilution of compounds and dilution range please refer Appendix. Incubate on water bath or CO2 incubator for 1 hour at 37° C. Add 10 μl of (10× conc.) of cytokine mix (GM-CSF and IFNa) (final conc.10 ng/mL of GM-CSF and 100 ng/mL of IFNa) to each well except unstimulated and unstained controls and incubate further for 20 minutes on water bath at 37° C.
Add 900 μL of prewarmed 1× Fix/Lyse solution (Appendix) and mix it properly using 1000 μl multichannel, incubate further on water bath at 37° C. for 10 minutes (which includes time of addition). Centrifuge at 800×g for 5 minutes at 40° C.; remove 900 uL of supernatant and add 900 μL of 1×PBS. Centrifuge at 800×g for 5 minutes at 40° C., remove 900 μL of supernatant. Wash one more time with 900 μL of PBS (optional) and resuspend pellets in 100 uL of PBS.
Disrupt the pellet by gentle tapping and resuspend in 1000 μL of BD Phosflow Perm Buffer III and incubate plate on ice for 30 minutes. Centrifuge plate at 800×g for 5 minutes at 40° C. Wash two more times with 1000 μL of BD Pharmingen Stain Buffer.
Disrupt the pellet by gentle tapping. Resuspend pellets in 100 uL of Stain Buffer and add 5 μL of pSTAT5_AF488 Ab and 5 uL of pSTAT_PE in all wells except unstained control and mix properly using 200 μl multichannel, incubate overnight at […]. Add 900 μL of wash buffer and centrifuge at 1800 rpm for 3 minutes at 40° C. Wash one more time with 1000 μL of BD Pharmingen Stain Buffer. Finally resuspend the pellet in 300 uL of BD Pharmingen Stain Buffer. Transfer the cells to 96-well v-bottom plate and acquire the cells in Beckman Coulter CytExpert. Acquiring cells in Flow Cytometer: Keep the threshold value to 250 and cell concentration should not exceed 100-500 cells/μL. Acquire at least 5,000-10,000 cells.
RPMI 1640 Complete Medium: RPMI 1640 media+10% FBS.
Cytokine dilution: 1) GM-CSF Stock at 100 ug/mL. Prepare an intermediate dilution of 1 ug/mL by adding 2 uL of stock into 198 uL of cRPMI. Further dilute to 100 ng/mL by adding 100 uL of the intermediate stock to 900 uL of cRPMI. 2) IFNa Stock at 200 ug/mL. Dilute IFNa stock 1:200 by adding 5 uL of stock into the 1000 uL of 100 ng/mL GM-CSF working stock as above to give a combined working stock of 1000 ng/mL of IFNa and 100 ng/mL GM-CSF (10×). Keep it on ice until used.
Lyse/Fix buffer preparation: Dilute 5× Lyse/Fix buffer to 1× using MQ water and keep at 37° C. until used.
BD Phosflow perm buffer III: Keep on ice/fridge.
Background: Flow cytometry measures light scatter and fluorescence of single cells or particles in a stream.

Consider `CNc1cc(Nc2cc(C)cc(C)c2)nc2c(NC(=O)NCC#N)cnn12` [Compound 128, 1-(cyanomethyl)-3-(5-((3,5-dimethylphenyl)amino)-7-(methylamino)pyrazolo[1,5-a]pyrimidin-3-yl)urea], for which the IC50 is below 1000 nM. The compound `CNC(=O)Nc1cnn2c(NC)cc(Nc3cccnc3OC)nc12` [Compound 164, 1-(5-((2-methoxypyridin-3-yl)amino)-7-(methylamino)pyrazolo[1,5-a]pyrimidin-3-yl)-3-methylurea] displayed an IC50 below 1000 nM. For the compound `CNc1cc(Nc2cccc3occc23)nc2c(NC(=O)N[C@@H]3C[C@@H]3F)cnn12` [Compound 50, 1-(5-(benzofuran-4-ylamino)-7-(methylamino)pyrazolo[1,5-a]pyrimidin-3-yl)-3-((1R,2S)-2-fluorocyclopropyl)urea], the IC50 is below 1000 nM. As for `CNC(=O)Nc1cnn2c(NC)cc(Nc3cccc4c3OCCC4)nc12` [Compound 157, 1-(5-(chroman-8-ylamino)-7-(methylamino)pyrazolo[1,5-a]pyrimidin-3-yl)-3-methylurea], the IC50 is below 1000 nM. `CNc1cc(Nc2cc(F)cc3c2OCCO3)nc2c(NC(=O)NC3CC3F)cnn12` (centres unmarked) [Compound 37, 1-(5-((7-fluoro-2,3-dihydrobenzo[b][1,4]dioxin-5-yl)amino)-7-(methylamino)pyrazolo[1,5-a]pyrimidin-3-yl)-3-(2-fluorocyclopropyl)urea]: the IC50 is below 1000 nM. On to `CNc1cc(Nc2cccc3c2OCCO3)nc2c(NC(=O)NCC(C)(C)CO)cnn12` [Compound 141, 1-(5-((2,3-dihydrobenzo[b][1,4]dioxin-5-yl)amino)-7-(methylamino)pyrazolo[1,5-a]pyrimidin-3-yl)-3-(3-hydroxy-2,2-dimethylpropyl)urea], for which the IC50 lay within 1000 to 10000 nM. The figure for `CNc1cc(Nc2cc(C)ccc2OC)nc2c(NC(=O)NCC#N)cnn12` [Compound 129, 1-(cyanomethyl)-3-(5-((2-methoxy-5-methylphenyl)amino)-7-(methylamino)pyrazolo[1,5-a]pyrimidin-3-yl)urea] is below 1000 nM.

For `CNC(=O)Nc1cnn2c(NC)cc(Nc3cccc4nccnc34)nc12` [Compound 166, 1-methyl-3-(7-(methylamino)-5-(quinoxalin-5-ylamino)pyrazolo[1,5-a]pyrimidin-3-yl)urea], the IC50 is below 1000 nM. Regarding `CNC(=O)Nc1cnn2c(NC)cc(Nc3cccc4cccnc34)nc12` [Compound 64, 1-methyl-3-(7-(methylamino)-5-(quinolin-8-ylamino)pyrazolo[1,5-a]pyrimidin-3-yl)urea], the IC50 is below 1000 nM.

On to `CNC(=O)Nc1cnn2c(NC)cc(Nc3cccc4c3OCC(=O)N4)nc12` [Compound 98, 1-methyl-3-(7-(methylamino)-5-((3-oxo-3,4-dihydro-2H-benzo[b][1,4]oxazin-8-yl)amino)pyrazolo[1,5-a]pyrimidin-3-yl)urea], for which the IC50 lay within 1000 to 10000 nM. Compound `CNC(=O)Nc1cnn2c(NC)cc(NC3CCCC3)nc12` [Compound 155, 1-(5-(cyclopentylamino)-7-(methylamino)pyrazolo[1,5-a]pyrimidin-3-yl)-3-methylurea] registered an IC50 of 1000 to 10000 nM.

The compound `CNC(=O)Nc1cnn2c(NC)cc(Nc3ccccc3OC(C)C)nc12` [Compound 162, 1-(5-((2-isopropoxyphenyl)amino)-7-(methylamino)pyrazolo[1,5-a]pyrimidin-3-yl)-3-methylurea] showed an IC50 of 1000 to 10000 nM. `CNc1cc2nc3c(cnn13)NC(=O)NCCOc1cccc(c1)N2` [Compound 22, (1^3E,1^4E)-1^7-(methylamino)-4-oxa-2,7,9-triaza-1(5,3)-pyrazolo[1,5-a]pyrimidina-3(1,3)-benzenacyclononaphan-8-one]: the IC50 is 1000 to 10000 nM. On to `CNc1cc(Nc2cccc3c2OCCO3)nc2c(NC(=O)NC3CC(C)(O)C3)cnn12` (centres unmarked) [Compound 48, 1-(5-((2,3-dihydrobenzo[b][1,4]dioxin-5-yl)amino)-7-(methylamino)pyrazolo[1,5-a]pyrimidin-3-yl)-3-(3-hydroxy-3-methylcyclobutyl)urea], for which the IC50 is at least 10000 nM.

These data come from US11753411B2, “Substituted pyrazolo[1,5-a]pyrimidines as TYK2 pseudokinase ligands” (Ventyx Biosciences, Inc., priority 2019, dated 2023).
